The subject of data set [1] is Egr-1, TGF-β1, PDGF-B, fibronectin and α1 (I) collagen mRNA in the kidney of Zucker Fatty Rats. As to the kind of experiment: mRNA expression levels in the kidney of Zucker fatty rats (real time quantitative RT-PCR). The class given is in vivo, rat. The method, then:
(§1) To the control group and the normal control group, i.e., male Zucker lean rats (ZL rat, Charles River Japan Inc.) with the same age, 0.5% methylcellulose 100 cP (Vehicle) was administered once per day everyday. Eight weeks after administration, urine was accumulated for 24 hours, and then the urinary albumin excretion was determined using A/G B Test Wako (Wako Pure Chemical Industries). Nine weeks after administration, the kidneys were collected and stored at −80° C., and subsequently the kidneys were crushed to extract the total RNA. The primers and fluorescent probe were prepared on the basis of the mRNA sequence previously reported, and then the amount of each of individual mRNAs was determined using ABI PRISM 7700 (Applied Biosystems) by the real time quantitative RT-PCR method.

In the next data set the test system is male Zucker fatty rat. Kind of data set: Urinary albumin excretion in Zucker fatty rats. The format is in vivo. The method, then:
as §1

Another data set relates to Egr-1 mRNA. As to the kind of experiment: Egr-1 mRNA expression in rat glomerular mesangial cells after FCS or AII stimulus (RT-PCR). The class given is cell-based. The following applies: 30 minutes after FCS (20%) stimulus; Candesartan 10^−5 M added 5 minutes before; relative value, before stimulus = 1; n = 3, Mean. The method, then:
Glomerular mesangial cells ([…] 7) isolated and cultivated from a male Sprague-Dawley rat (SD rat, Japan Crea) of the age of 4 weeks were cultivated in DMEM medium containing 20% fetal calf serum (FCS) for 4 days, and then the cells were cultivated in DMEM containing 0.2% bovine serum albumin for 3 days. To the cells after cultivation, FCS (20%) or angiotensin II (AII) (10^-6M) was added, and then the resulting mixture was reacted at 37° C. for 30 minutes. The AII type I receptor antagonist Candesartan of 10^-5 M as the final concentration was added to the medium 5 minutes prior to the stimulation of FCS or AII. Thirty minutes after FCS or AII stimulus, total RNA was extracted. The primers and fluorescent probe were prepared on the basis of the mRNA sequence previously reported, and subsequently the level of Egr-1 mRNA expression was determined using ABI PRISM 7700 (Applied Biosystems) by the real time quantitative RT-PCR method.

The subject of the next data set is tissue factor mRNA. Kind of data set: Tissue factor mRNA expression in rat glomerular mesangial cells after bFGF stimulus (quantitative RT-PCR). The following applies: ODN 20 μM for 24 hours, two hours after bFGF (3 ng/ml) stimulus, relative value, control = 1, n = 2-3, Mean. The class given is cell-based. The source says: (§2) Glomerular mesangial cells (passege 4-5) isolated and cultivated from a male SD rat with 4 weeks age were cultivated for 3 to 4 days in DMEM medium containing 20% fetal bovine serum to sub-confluence, and the medium was changed to DMEM containing a 0.2% bovine serum albumin and then the resulting material was subjected to serum starvation. Forty-eight hours after initiation of the serum starvation, Egr-1 AS-ODN (SEQ ID NO: 7) or a Control-ODN (the scrambled ODNs that were matched with the AS-ODN in size and the number of bases, both synthesized by BIOGNOSTIK Corp.) with a concentration of 20 μM was added to the medium and the resultant material was allowed to stand in a CO2 incubator for 24 hours. Thereafter the material was stimulated with a basic fibroblast growth factor (bFGF) (3 ng/ml), and then was reacted at 37° C. for 1 to 2 hours. A protein was extracted from the cell one hour after bFGF stimulus, and total RNA was extracted from a cell two hours after bFGF stimulus. […] The brightness accumulation value of the band thus detected was calculated by a CS Analyzer 1.00a (ATTO). Also, the mRNA expression level of the tissue factor was determined by making the primer and fluorescent probe on the basis of the mRNA sequence previously reported and by using ABI PRISM 7700 (Applied Biosystems) by means of the quantitative RT-PCR method.

A further data set deals with Egr-1 protein. Kind of data set: Egr-1 protein expression in rat glomerular mesangial cells after bFGF stimulus (Western blotting). The format is cell-based. Conditions: ODN 20 μM for 24 hours, one hour after bFGF (3 ng/ml) stimulus, relative value, control = 1, n = 2-3, Mean.
Egr-1 protein, sequence (P08154 whole entry): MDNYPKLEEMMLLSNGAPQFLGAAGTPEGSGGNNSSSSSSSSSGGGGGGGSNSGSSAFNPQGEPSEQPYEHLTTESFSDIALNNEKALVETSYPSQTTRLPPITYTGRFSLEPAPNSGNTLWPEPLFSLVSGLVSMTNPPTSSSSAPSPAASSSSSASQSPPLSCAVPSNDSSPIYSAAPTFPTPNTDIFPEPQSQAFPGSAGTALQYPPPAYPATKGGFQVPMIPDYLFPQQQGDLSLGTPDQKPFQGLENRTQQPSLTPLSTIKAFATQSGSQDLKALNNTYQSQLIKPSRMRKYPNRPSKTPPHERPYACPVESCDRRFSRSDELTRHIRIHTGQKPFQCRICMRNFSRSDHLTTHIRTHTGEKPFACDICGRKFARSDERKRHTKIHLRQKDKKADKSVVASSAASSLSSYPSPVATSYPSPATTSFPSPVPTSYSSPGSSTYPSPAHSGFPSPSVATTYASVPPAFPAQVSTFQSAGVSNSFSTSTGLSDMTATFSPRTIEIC
Description: as §2
On the technique in general: In western blotting, separated proteins are transferred to a membrane and probed.

Data set [2] relates to Glomerular mesangial cells. As to the kind of experiment: Cytotoxicity by transfection in rat glomerular mesangial cells. The format is cell-based. Conditions: ODN 20 μM.
The next data set has as its target human Egr-1 (human) (UniProt P18146). As to the kind of experiment: plate assay: Egr-1 from HEK293 lysate captured on biotinylated double-stranded DNA with the Egr-1 binding sequence (SEQ ID NO: 10) on a streptavidin plate, detected with anti-Egr-1 polyclonal antibody and HRP anti-rabbit IgG.
The mark [3] stands for this setting: ZF rat, nine weeks after administration, relative value, ZL rat = 1, n = 8-9, Mean.

human Egr-1 (human), sequence (P18146 whole entry): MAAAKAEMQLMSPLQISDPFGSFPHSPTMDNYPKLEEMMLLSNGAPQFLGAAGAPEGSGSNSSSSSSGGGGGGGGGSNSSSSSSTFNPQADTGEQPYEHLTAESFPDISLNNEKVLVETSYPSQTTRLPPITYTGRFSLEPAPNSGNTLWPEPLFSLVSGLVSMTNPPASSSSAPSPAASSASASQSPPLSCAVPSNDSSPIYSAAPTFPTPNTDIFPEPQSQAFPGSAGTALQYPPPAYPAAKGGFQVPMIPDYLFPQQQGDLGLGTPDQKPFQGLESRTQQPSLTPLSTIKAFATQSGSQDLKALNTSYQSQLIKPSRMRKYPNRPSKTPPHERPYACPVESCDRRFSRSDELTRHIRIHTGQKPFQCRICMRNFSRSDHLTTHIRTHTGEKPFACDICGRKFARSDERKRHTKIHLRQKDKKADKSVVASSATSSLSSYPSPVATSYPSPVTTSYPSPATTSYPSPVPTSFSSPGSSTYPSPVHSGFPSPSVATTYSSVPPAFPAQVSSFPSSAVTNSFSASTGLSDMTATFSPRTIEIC

On to `CCOc1nc2cccc(C(=O)OC(C)OC(=O)OC3CCCCC3)c2n1Cc1ccc(-c2ccccc2-c2nnn[nH]2)cc1` (stereo not drawn) [Candesartan cilexetil], for which the “Increase in the level of Egr-1, TGF-β1, PDGF-B, fibronectin and α1(I) collagen mRNA expression in the kidney (in words)” value in data set [1] (Zucker fatty rat, oral administration once per day for 9 weeks) is on record as “inhibits the increase”. Moreover, in the data set on male Zucker fatty rat (ZF rat, orally once per day, eight weeks after administration, 24 hours urine, n = 8-9, Mean), the Urinary albumin excretion is recorded as 61.7 mg/day. In the data set on male Zucker fatty rat (Zucker fatty rat, oral administration once per day), the “Increase in the urinary albumin excretion (in words)” value is listed as “inhibition of an increase”.
As for `CCOc1nc2cccc(C(=O)O)c2n1Cc1ccc(-c2ccccc2-c2nnn[nH]2)cc1` [Candesartan], in data set [1] (setting [3]), the “Egr-1 mRNA expression level in the kidney” value is 1.3, the “Fibronectin mRNA expression level in the kidney” value is 1.1, the “PDGF-B mRNA expression level in the kidney” value is on record as 1.0 and the “TGF-β1 mRNA expression level in the kidney” value is reported as 1.2. In addition, the “α1 (I) collagen mRNA expression level in the kidney” value in data set [1] (setting [3]) is 1.6. Besides, the “Egr-1 mRNA expression level” value in the data set with Egr-1 mRNA is given as 18.4.
Turning to “AS-ODN: Egr-1 antisense oligodeoxynucleotide (SEQ ID NO: 7), synthesized by BIOGNOSTIK Corp. (antisense GCGGGGTGCAGGGGCACACT; DNA, backbone and methylation of C not given here)”, the results for the “Tissue factor mRNA expression” value with tissue factor mRNA and in the data set on tissue factor mRNA (listed as Egr-1 AS-ODN) were 1.1 and “almost completely suppressed”, respectively. The results for the Egr-1 protein expression in the data set on Egr-1 protein and with Egr-1 protein (listed as Egr-1 AS-ODN) were 2.0 and “suppressed”, respectively. The Cytotoxicity by transfection entry in data set [2] is given as “not observed”.
For the compound “anti-Egr-1 antigen (rabbit, polyclonal antibody, SANTA CRUZ Corp., sc-189)”, in the data set with human Egr-1 (human), the absorbance at 450 nm (absorbance (450 nm)) was 0.751.

Source of the values: patent publication US20050069948A1, “Screening method” (priority 2002, published 2005).
